# Results as given in the SangsterLogP compilation.
row,Structure (SMILES),logP
1,CCCOC(C)COC(C)CO (centres undefined),0.99
2,COC(C)COC(C)COC(C)CO (centres undefined),0.31
3,COC(C)COC(C)COC(C)=O (centres undefined),0.8
4,COCCCO,-0.44
5,CC(O)COc1ccccc1 (centres undefined),1.5
6,COCC(C)O (centres undefined),-0.44
7,COC(C)COC(C)=O (centres undefined),0.43
8,CCCOCC(C)OCC(C)O (centres undefined),0.99
9,CCCOC(C)CO (centres undefined),0.62
10,CCCCOC(C)COC(C)COC(C)CO (centres undefined),1.9

# The remaining lines, values ahead:
row,logP,Structure (SMILES)
1,1.52,CCCCOCC(C)OCC(C)O (centres undefined)
2,0.62,CCCOCC(C)O (centres undefined)
3,1.5,CC(CO)Oc1ccccc1 (centres undefined)
4,0.8,COCC(C)OCC(C)OC(C)=O (centres undefined)
5,1.15,CCCCOC(C)CO (centres undefined)
6,-0.06,COC(C)COC(C)CO (centres undefined)
7,1.15,CCCCOCC(C)O (centres undefined)
8,1.9,CCCCOCC(C)OCC(C)OCC(C)O (centres undefined)
9,0.31,COCC(C)OCC(C)OCC(C)O (centres undefined)
